# Measurements taken from PMC7449411, “In silico discovery and biological validation of ligands of FAD synthase, a promising new antimicrobial target” (PLoS Computational Biology, 2020).
# Columns and labels:
# [1] = system: E. coli; test: MIC, resazurin broth microdilution; assay type: cell-based, Escherichia coli; settings: media LB
# [2] = system: L. monocytogenes; test: MIC, resazurin broth microdilution; assay type: cell-based, Listeria monocytogenes; settings: media BHI
# [3] = system: P. aeruginosa; test: MIC, resazurin broth microdilution; assay type: cell-based, Pseudomonas aeruginosa; settings: media MH
# [4] = system: M. smegmatis; test: MIC, resazurin broth microdilution; assay type: cell-based, Mycobacterium smegmatis; settings: media 7H9G-ADC
# [5] = system: S. pneumoniae; test: MIC, resazurin broth microdilution; assay type: cell-based, Streptococcus pneumoniae
# [6] = system: C. glutamicum; test: MIC, resazurin broth microdilution; assay type: cell-based, Corynebacterium glutamicum; settings: media BHI
# [7] = system: S. aureus; test: MIC, resazurin broth microdilution; assay type: cell-based, Staphylococcus aureus; settings: media MH
# [8] = system: C. diphteriae; test: MIC, resazurin broth microdilution; assay type: cell-based, Corynebacterium diphteriae
# [9] = system: S. thyphimurium; test: MIC, resazurin broth microdilution; assay type: cell-based, Salmonella thyphimurium; settings: media MH
# [10] = system: M. tuberculosis; test: MIC, resazurin broth microdilution; assay type: cell-based, Mycobacterium tuberculosis; settings: M. tuberculosis, media 7H9G-ADC
# [11] = system: C. ammoniagenes; test: MIC, resazurin broth microdilution; assay type: cell-based, Corynebacterium ammoniagenes; settings: C. ammoniagenes
# [12] = molecular target: T1, RFK+FMNAT CaFADS activities (Corynebacterium ammoniagenes, UniProt Q59263); test: Inhibition of the RFK+FMNAT activity of CaFADS; assay type: biochemical; settings: residual activity at 250 μM of compound, 25 °C
# T1 construct: made in house; host or cells: Escherichia coli BL21(DE3)
# Method: (§1) To determine the compound’s ability to inhibit the RFK and/or the FMNAT activities of CaFADS, both enzymatic activities were quantitatively measured in the absence and presence of the compounds following previously described protocols. Reaction mixtures contained 50 μM ATP, 5 μM RF in 20 mM PIPES, pH 7.0, 0.8 mM MgCl2, when assaying the RFK activity, and 50 μM ATP, 10 μM FMN in 20 mM PIPES, pH 7.0, 10 mM MgCl2 when measuring the FMNAT reaction. Each compound was tested at 250 μM (0.5% residual final concentration of DMSO) for each of the two enzymatic reactions. The samples were pre-incubated at 25 °C, the reaction was then initiated by the addition of ∼ 40 nM CaFADS (final concentration) and allowed for 1 min. Finally, the reaction was stopped by boiling the samples for 5 min and the denatured protein was eliminated through centrifugation. The transformation of RF into FMN and FAD (RFK activity) and of FMN into FAD (FMNAT activity) was evaluated through flavins separation by HPLC (Waters), as previously described. All the experiments were performed in triplicate. To evaluate the potency of compounds as inhibitors, we took advantage of the decrease in quantum yield of fluorescence when FMN is transformed into FAD, which allows to follow such transformation in a continuous system. Measurements were carried out using a microplate reader Synergy HT multimode plate reader (Biotek) with BRAND 96-well plates pure Grade. Reaction mixtures contained 5 μM RF or FMN, and 50 μM ATP in 20 mM PIPES, pH 7.0, 10 mM MgCl2, and the inhibitor compound in a 5-250 μM concentration range (2% residual final concentration of DMSO). Reactions were initiated through addition of 0.4 μM CaFADS, being the final reaction volume 100 μL. Flavin fluorescence (excitation at 440 nm and emission at 530 nm) was registered at 25 °C, every 50 s during 15 min. The fluorescence change per time unit (ΔF/Δt) was calculated as the slope of the resulting fluorescence decays recorded between 0 and 6 min (linear decay of the fluorescence). Controls which contained the reaction mixture without the enzyme and without any potential CaFADS inhibitory compound were included in the assay and referred as the 0% and 100% of enzymatic activity, respectively. IC50 was calculated as the concentration of compound required for a 50% inhibition of the enzymatic activity.
# [13] = molecular target: T2, FMNAT activity of CaFADS (Corynebacterium ammoniagenes, UniProt Q59263); test: Inhibition of the FMNAT activity of CaFADS; assay type: biochemical; settings: residual activity at 250 μM of compound, 25 °C
# T2 construct: made in house; host or cells: Escherichia coli BL21(DE3)
# Method: as §1
# [14] = molecular target: T3, CaFADS (Corynebacterium ammoniagenes, UniProt Q59263); test: Differential scanning fluorescence (thermal denaturation) binding to CaFADS; settings: 2 μM CaFADS, compound up to 250 μM
# T3 construct: made in house; host or cells: Escherichia coli BL21(DE3)
# Method: Interaction of compounds with CaFADS was evaluated using fluorescence thermal denaturation, on the bases of the shifts in denaturation midpoints of thermal curves of the protein [65]. Denaturations were performed in a Stratagene Agilent Mx3005p qPCR instrument (Santa Clara, US) following SYPR Orange (ThermoFisher Scientific) emission fluorescence (excitation at 492 nm and emission at 610 nm), which greatly increases when this probe binds to protein hydrophobic regions becoming solvent exposed upon thermal unfolding. Solutions containing 2 μM CaFADS with the studied compound in an increasing 5-250 μM concentration range (2% residual final concentration of DMSO) and 5xSYPR Orange in 20 mM PIPES pH 7.0, 10 mM MgCl2, with a 100 μL total volume were dispensed into 96-well microplates (BRAND 96-well plates pure grade™). After an initial 1 min incubation at 25 °C within the equipment, unfolding curves were registered from 25 to 100 °C at 1 °C·min^−1. Control experiments with CaFADS samples with/without DMSO were routinely performed in each microplate. For those compounds shifting midpoint denaturation temperature, Tm, the dissociation constant, Kd, was predicted by fitting the data to the equation [66] ΔTm/Tm=NRTm0/ΔH0ln(1+[L]/Kd), (2) which estimates the extent of the ligand-induced protein stabilization/destabilization. ΔTm=|Tm-Tm0| with Tm0 and Tm being the midpoint denaturation temperatures in the absence and the presence of ligand, respectively, and ΔH0 the unfolding enthalpy of the protein in the absence of ligand.
# T3 sequence (Q59263 whole entry): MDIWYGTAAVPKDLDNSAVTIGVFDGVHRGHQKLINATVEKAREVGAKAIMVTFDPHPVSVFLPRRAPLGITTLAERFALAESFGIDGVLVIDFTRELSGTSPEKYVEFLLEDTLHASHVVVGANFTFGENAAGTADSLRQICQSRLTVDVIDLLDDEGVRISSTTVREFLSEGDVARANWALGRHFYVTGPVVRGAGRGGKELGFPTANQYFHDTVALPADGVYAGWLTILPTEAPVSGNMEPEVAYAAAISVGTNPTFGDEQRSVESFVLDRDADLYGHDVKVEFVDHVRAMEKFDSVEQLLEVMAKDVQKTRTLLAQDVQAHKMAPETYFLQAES
# T1 sequence (Q59263 whole entry): as above
# T2 sequence (Q59263 whole entry): as above
Structure (SMILES),MIC [1] [µM],MIC [2] [µM],MIC [3] [µM],MIC [4] [µM],MIC ([5]; media BHI) [µM],MIC ([5]; media MH) [µM],MIC [6] [µM],MIC [7] [µM],MIC ([8]; media BHI) [µM],MIC ([8]; media MH) [µM],MIC [9] [µM],MIC [10] [µM],MIC ([11]; media BHI) [µM],MIC ([11]; media MH) [µM],MIC ([11]; media MH+DFO) [µM],MIC ([11]; media MH+DIP) [µM],MIC ([11]; media MH+DIP+DFO) [µM],RFK+FMNAT % Res. act. 250 μM [12] [%],FMNAT % Res. act. 250 μM [13] [%],Tm shift of CaFADS thermal denaturation [14]
"O=C(O)CC(CC(=O)Nc1ccc2ccccc2n1)c1ccccc1 (stereo not shown) [Compound C4, 5-oxo-3-phenyl-5-(2-quinolinylamino)pentanoic acid]",> 64,> 64,> 256,> 256,> 256,> 256,> 64,> 256,> 64,> 256,> 256,> 256,> 64,> 256,> 256,> 256,> 256,–,–,–
"Cc1c(N=CN(C(=O)c2ccccc2)c2cccc([N+](=O)[O-])c2C)cccc1[N+](=O)[O-] [Compound C7, N1-(2-methyl-3-nitrophenyl)-N1-{[(2-methyl-3-nitrophenyl)imino]methyl}benzamide]",> 256,> 256,> 256,–,–,–,> 256,> 256,–,> 256,> 256,> 256,–,> 256,> 256,> 256,> 256,82 ± 7,>95,–
"N#CC(=Cc1cccc([N+](=O)[O-])c1)c1nn(-c2ccccc2)c(-n2cccc2)c1C#N [Compound C8, 3-[1-cyano-2-(3-nitrophenyl)vinyl]-1-phenyl-5-(1H-pyrrol-1-yl)-1H-pyrazole-4-carbonitrile]",> 64,> 64,> 256,> 256,> 256,> 256,> 64,> 256,> 64,> 256,> 256,> 256,> 64,> 256,> 256,> 256,> 256,–,–,–
"N#Cc1ccc(C=NNC(=O)c2cnn(-c3ccc([N+](=O)[O-])cc3)c2C(F)(F)F)cc1 [Compound C10, N'-[(4-cyanophenyl)methylene]-1-(4-nitrophenyl)-5-(trifluoromethyl)-1H-pyrazole-4-carbohydrazide]",> 64,> 64,> 256,> 256,> 256,> 256,> 64,> 256,> 64,> 256,> 256,> 256,> 64,> 256,> 256,> 256,> 256,–,–,–
"COc1ccc(NC(=O)CC(CC(=O)O)c2cc(OC)c(OC)c(OC)c2)cc1 (stereo not shown) [Compound C11, 5-(4-methoxyanilino)-5-oxo-3-(3,4,5-trimethoxyphenyl)pentanoic acid]",> 64,> 64,> 256,> 256,> 256,> 256,> 64,> 256,> 64,> 256,> 256,> 256,> 64,> 256,> 256,> 256,> 256,–,–,–
"CC1=C(C)CC(C(=O)Nc2ccc(Oc3ccc(Cl)cc3)cc2)C(C(=O)O)C1 (stereo not shown) [Compound C12, 6-{[4-(4-chlorophenoxy)anilino]carbonyl}-3,4-dimethylcyclohex-3-ene-1-carboxylic acid]",> 256,> 256,> 256,–,–,–,> 256,> 256,–,> 256,> 256,> 256,–,> 256,> 256,> 256,> 256,–,–,neither binder nor inhibitor
"O=C(O)C(=Cc1ccc2c(c1)OCO2)NC(=O)c1ccccc1 [Compound C14, 3-(1,3-benzodioxol-5-yl)-2-(benzoylamino)acrylic acid]",> 64,> 64,> 256,> 256,> 256,> 256,> 64,> 256,> 64,> 256,> 256,> 256,> 64,> 256,> 256,> 256,> 256,–,–,–
"NS(=O)(=O)c1ccc(NC(=O)CC(CC(=O)O)c2ccccc2)cc1 (stereo not shown) [Compound C17, 5-[4-(aminosulfonyl)anilino]-5-oxo-3-phenylpentanoic acid]",> 256,> 256,> 256,–,–,–,> 256,> 256,–,> 256,> 256,> 256,–,> 256,> 256,> 256,> 256,–,–,–
"Cc1ccc(OCC2SCCN2C(=O)c2c(-c3c(Cl)cccc3Cl)noc2C)c([N+](=O)[O-])c1 (stereo not shown) [Compound C25, [3-(2,6-dichlorophenyl)-5-methylisoxazol-4-yl]{2-[(4-methyl-2-nitrophenoxy)methyl]-1,3-thiazolan-3-yl}methanone]",> 256,> 256,> 256,–,–,–,> 256,> 256,–,> 256,> 256,> 256,–,> 256,> 256,> 256,> 256,–,–,–
